These results are taken from patent publication US20020111274A1, “1-alkyl-3-[1-(substituted phenyl) benzotriazol-6-yl] uracils” (BASF Aktiengesellschaft, priority 2000, published 2002).

Molecules are shown by their SMILES.

Common to all, as to design: scale not given here
The test system of experiment [1] is TRZAWR Wheat, Winter, cv Riband. The experiment can be described thus: Postemergence herbicidal evaluation, TRZAWR. It is filed as in vivo, Triticum aestivum. The following applies: postemergence spray, rated about two-three weeks after treatment. The procedure, abridged:
(§1)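 Visual injury rating ~2–3 wk post-spray; replicate tests averaged. Two-week-old seedlings; foliar spray at 40 psi; 0.006–0.400 kg ai/ha in 80/20 acetone/water + 1.0% methylated seed oil.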

Another experiment deals with SETVI Foxtail, Green. The experiment can be described thus: Preemergence herbicidal evaluation, SETVI. It is filed as in vivo, Setaria viridis, (L.) Beau. The following applies: preemergence. In a few lines:
(§2)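 First, seed is blended with potting soil and sown over roughly an inch of soil per cup. Next, the surface is sprayed with an aqueous acetone solution delivering about 0.013–0.800 kg/ha. Finally, cups are grown in the greenhouse and rated after 4–5 weeks.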

For experiment [2], the system named is CHEAL Lambsquarters, Common. The experiment can be described thus: Preemergence herbicidal evaluation, CHEAL. Format: in vivo, Chenopodium album, L. The following applies: preemergence. In a few lines:
as §2

Experiment [3] deals with TRZAWR Wheat, Winter, cv Riband. The experiment can be described thus: Preemergence herbicidal evaluation, TRZAWR. It is filed as in vivo, Triticum aestivum. The following applies: preemergence. The procedure, abridged:
as §2

A further experiment concerns GALAP Galium. The experiment can be described thus: Postemergence herbicidal evaluation, GALAP. It is filed as in vivo, Galium aparine. The settings on record: postemergence spray, rated about two-three weeks after treatment. The procedure, abridged:
as §1

As to `Cc1ccc(O)c(-n2nnc3cc(F)c(-n4c(=O)cc(C(F)(F)F)n(C)c4=O)cc32)c1` [Example 31, 3-[5-Fluoro-1-(2-Hydroxy-5-Methylphenyl)-1H-1,2,3-Benzotriazol-6-yl]-1-Methyl-6-(Trifluoromethyl)-2,4(1H,3H)-(Pyrimidinedione)], the “Postemergence herbicidal rating TRZAWR” value is recorded as 2.0 in experiment [1] (0.008 kg/ha), 2.0 in experiment [1] (0.016 kg/ha), 3.0 in experiment [1] (0.032 kg/ha) and 3.0 in experiment [1] (0.062 kg/ha). Besides, the SETVI herbicidal rating is 0.0 in the experiment with SETVI Foxtail, Green (rate 0.008 kg/ha); 0.0 with SETVI Foxtail, Green (rate 0.016 kg/ha); 0.0 with SETVI Foxtail, Green (rate 0.032 kg/ha); 0.0 in the experiment on SETVI Foxtail, Green (rate 0.062 kg/ha); 0.0 in the experiment on SETVI Foxtail, Green (rate 0.125 kg/ha). Also, the CHEAL herbicidal rating in experiment [2] (rate 0.008 kg/ha) was determined as 0.0; in experiment [2] (rate 0.016 kg/ha) it was 0.0; in experiment [2] (rate 0.032 kg/ha) it was 0.0; in experiment [2] (rate 0.062 kg/ha) it was 3.0; in experiment [2] (rate 0.125 kg/ha), 9.0. Also, the TRZAWR herbicidal rating in experiment [3] (rate 0.008 kg/ha), in experiment [3] (rate 0.016 kg/ha), in experiment [3] (rate 0.032 kg/ha), in experiment [3] (rate 0.062 kg/ha) and in experiment [3] (rate 0.125 kg/ha) was 0.0 each time. Besides, the “Postemergence herbicidal rating GALAP” value with GALAP Galium (0.008 kg/ha), in the experiment with GALAP Galium (0.016 kg/ha), in the experiment on GALAP Galium (0.032 kg/ha) and in the experiment with GALAP Galium (0.062 kg/ha) was 0.0 in each case.
